In general, MIC refers to the least concentration at which growth counts as inhibited.

Common to all, as to format: cell-based
Assay [1] deals with Pseudomonas aeruginosa strain PA01. The experiment in a line: 96-well broth dilution test (MIC) in presence and absence of dendrimer. Particulars: for MIC: MHB, 37° C., 24 hours; for Reduction (%) in MIC: with dendrimer (0.1%) versus antibiotic alone. The method, then: (§1) Briefly, a standard suspension of the two Pseudomonas strains was prepared in Mueller Hinton Broth (MHB), then added to varying concentrations of antibiotic in a 96-well plate. Tests were performed either in the presence or absence of dendrimer (final concentration 0.1%). 96-well plates were incubated at 37° C. for 24 hours, with optical density (620 nm) of cultures monitored over this period using a Multiskan EX plate reader (Thermo Labsystems).
For orientation: Dilution methods test growth across graded concentrations, often in twofold steps.

Assay [2] has as its system Pseudomonas aeruginosa strain PS3. Described as above. Conditions: for MIC: MHB, 37° C., 24 hours; for Reduction (%) in MIC: with dendrimer (0.1%) versus antibiotic alone. The method, then:
as §1

Assay [3] deals with Pseudomonas aeruginosa strain PA01. The experiment in a line: Antibiotic disc diffusion assay (zone of inhibition). Conditions: antibiotic disc on Iso-Sensitest agar, 37° C., 20 hours, ±Stdev, n = 2. As to the method: (§2) The antibiotic disc diffusion assay was performed as described previously to determine the antibiotic susceptibility of the two strains. Briefly, a standardised suspension of the two Pseudomonas strains was used to inoculate Iso-Sensitest agar (ISA) plates to yield semi-confluent growth of each organism. Antibiotic discs containing Gentamicin and Imipenem were applied to the inoculated plates, then incubated at 37° C. for 20 hours. Zones of inhibition were measured to the nearest millimetre.
In general terms: A growth-free zone around the sample is the usual read-out of agar diffusion tests.

Assay [4] relates to Pseudomonas aeruginosa strain PS3. The assay is described as above. Conditions: antibiotic disc on Iso-Sensitest agar, 37° C., 20 hours, ±Stdev, n = 2. The method, then:
as §2

Where [5] appears, read: presence of dendrimer (final concentration 0.1%).

≈ marks a conversion by molar mass, not a printed value. Read-outs that look alike come from different tables or passages of the source.

Turning to `C[C@@H](O)[C@H]1C(=O)N2C(C(=O)O)=C(SCCN=CN)C[C@H]12` [Imipenem], the minimal inhibitory concentration (MIC) was 28.3 µg/mL (≈ 94.6 µM) in assay [1] (Pseudomonas aeruginosa, PA01, 24 h, absence of dendrimer, read-out: MIC); < 0.011 µg/mL in assay [1] (Pseudomonas aeruginosa, PA01, 24 h, presence of dendrimer (final concentration 0.1%), read-out: MIC); 51.1 µg/mL (≈ 171 µM) in assay [2] (Pseudomonas aeruginosa, PS3, 24 h, absence of dendrimer, read-out: MIC); < 0.011 µg/mL in assay [2] (Pseudomonas aeruginosa, PS3, 24 h, presence of dendrimer (final concentration 0.1%), read-out: MIC). Besides, the “Reduction (%) in MIC” value in assay [1] and in assay [2] was > 99.9% in each case. The Zone of inhibition in assay [3] was 12 (±2.8) Mm; in assay [4], 35 (±0.0) Mm.
As to Gentamicin, the MIC turned out to be 4.64 µg/mL in assay [1] (absence of dendrimer), 1.34 µg/mL in assay [1] (setting [5]), 1.45 µg/mL in assay [2] (absence of dendrimer) and 0.32 µg/mL in assay [2] (setting [5]). The “Reduction (%) in MIC” value is reported as 71% in assay [1] and 78% in assay [2]. In addition, the Zone of inhibition in assay [3] is 38 (±1.4) Mm; in assay [4] it was 46 (±0.7) Mm.

The record behind these values is patent publication US20250195561A1, “A CATIONIC DENDRIMER FOR IMPROVING ANTIBIOTIC EFFICACY OF AN ANTIBIOTIC” (GAMA HEALTHCARE LTD, priority 2022, published 2025).
